Data: paper PMC6327263, “Evaluation of Novel 3-Hydroxyflavone Analogues as HDAC Inhibitors against Colorectal Cancer” (Advances in Pharmacological Sciences, 2018)

Columns and labels:
acetyl histone H3K9 = assay: Western blotting, acetyl histone H3K9 expression; format: cell-based, human; conditions: HCT116 cells, 24 h, compared to normal control
Protocol: After various treatments for 24 h, cells were lysed, and protein quantification of the lysates was estimated using the BCA™ kit (Thermo Fisher Scientific Inc., Waltham, MA, USA). Proteins samples (30 µg) were resolved on a 10% SDS-PAGE and transferred onto a PVDF membrane and blocked with 5% nonfat milk in TBST (tris-buffered saline with Tween-20) buffer for 1 h followed by washing in TBST buffer. The membrane was then probed with primary antibodies (GAPDH, HDAC8, p21^Waf1/Cip1, and acetyl-histone H3[Ac-Lys^9]) and incubated overnight at 4°C. The membrane was washed with TBST buffer and incubated with horseradish peroxidase-conjugated secondary antibody for 1 h at room temperature. Signal was captured using SuperSignal™ West Pico Plus chemiluminescent substrate (Thermo Fischer Scientific Inc., Waltham, MA, USA) on gel documentation system (G : BOX Chemi XRQ, Syngene). The protein band densities were estimated using the software ImageJ (version 1.46r, NIH, Bethesda, MD, USA).

Wistar rats = format: in vivo; conditions: 2000 mg/kg p.o., limit test, 14 days observation
Protocol: Animal care and handling were carried out according to the guidelines of the Committee for the Purpose of Control and Supervision of Experiments on Animals (CPCSEA), after seeking the approval of the research proposal by institutional animal ethics committee (IAEC) (IAEC/KMC/23/2015). Male Wistar rats inbred at the central animal research facility (CARF), Manipal academy of higher education (MAHE), was used in the present study. […] The animals were housed in sterile polypropylene cages containing sterile paddy husk and were provided with 12 h light and dark cycles.
The safe dose of the promising two analogues (QMJ-2 and QMJ-5) and quercetin were evaluated using Organization for Economic Cooperation and Development (OECD), 425 guidelines. Limit test was performed using 2000 mg/kg dose.

SMILES	expression of acetylated histone H3K9 (acetyl histone H3K9)	acute toxicity, tolerability (Wistar rats)	mortality (Wistar rats)
Cc1ccc(-c2oc3cc(C)ccc3c(=O)c2O)cc1 [QMJ-5, 3-Hydroxy-7-methyl-2-(4-methylphenyl)-4H-1-benzopyran-4-one]	significant increase		
O=c1c(O)c(-c2ccc(O)c(O)c2)oc2cc(O)cc(O)c12 [Quercetin, quercetin, reference compound]		safe and well tolerated	no mortality
